Reference: ChEMBL document CHEMBL1129758, “Rapid synthesis of novel dipeptide inhibitors of human collagenase and gelatinase using solid phase chemistry” (Bioorg Med Chem Lett, 1996)
Where a name gives a salt, the structure may show the parent alone. *1 amine or outer side, *2 acyl side, *3 side chain or, on linkers, in order; H or OH if unused. Where a SMILES comes first, the peptide text is derived from it. [ ]: non-standard residue; d: D form. The star is where a group is joined. Hydrocinnamoyl = O=C(CCc1ccccc1)*; 3Pal = N[C@@H](Cc1cccnc1)C(=O)O; 2Thi = N[C@@H](Cc1cccs1)C(=O)O; CO = O=C([*:1])[*:2]; Tfa = O=C(C(F)(F)F)*; NHPh = c1ccc(N*)cc1

Experiments:
[1] = molecular target: T1, Interstitial collagenase (Homo sapiens, UniProt P03956); assay: Inhibitory activity against human fibroblast collagenase (MMP-1)
T1 sequence (P03956 whole entry): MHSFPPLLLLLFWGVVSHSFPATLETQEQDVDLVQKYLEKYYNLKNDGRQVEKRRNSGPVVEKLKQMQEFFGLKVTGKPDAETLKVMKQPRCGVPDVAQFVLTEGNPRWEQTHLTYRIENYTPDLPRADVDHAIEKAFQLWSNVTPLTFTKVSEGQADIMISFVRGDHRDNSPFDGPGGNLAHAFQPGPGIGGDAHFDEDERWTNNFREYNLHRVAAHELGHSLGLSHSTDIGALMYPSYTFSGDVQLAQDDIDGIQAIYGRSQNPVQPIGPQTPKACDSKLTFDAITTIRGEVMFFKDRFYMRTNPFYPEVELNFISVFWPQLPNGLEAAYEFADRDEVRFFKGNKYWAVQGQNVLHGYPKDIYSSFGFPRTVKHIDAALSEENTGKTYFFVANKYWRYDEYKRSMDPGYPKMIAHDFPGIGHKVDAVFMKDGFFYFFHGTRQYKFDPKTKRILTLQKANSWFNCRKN

[2] = molecular target: Matrix metalloproteinase-9 (Homo sapiens, UniProt P14780); assay: Compound was tested for its inhibitory activity against 92 kD gelatinase (MMP-9)
Sequence of Matrix metalloproteinase-9 (P14780 whole entry): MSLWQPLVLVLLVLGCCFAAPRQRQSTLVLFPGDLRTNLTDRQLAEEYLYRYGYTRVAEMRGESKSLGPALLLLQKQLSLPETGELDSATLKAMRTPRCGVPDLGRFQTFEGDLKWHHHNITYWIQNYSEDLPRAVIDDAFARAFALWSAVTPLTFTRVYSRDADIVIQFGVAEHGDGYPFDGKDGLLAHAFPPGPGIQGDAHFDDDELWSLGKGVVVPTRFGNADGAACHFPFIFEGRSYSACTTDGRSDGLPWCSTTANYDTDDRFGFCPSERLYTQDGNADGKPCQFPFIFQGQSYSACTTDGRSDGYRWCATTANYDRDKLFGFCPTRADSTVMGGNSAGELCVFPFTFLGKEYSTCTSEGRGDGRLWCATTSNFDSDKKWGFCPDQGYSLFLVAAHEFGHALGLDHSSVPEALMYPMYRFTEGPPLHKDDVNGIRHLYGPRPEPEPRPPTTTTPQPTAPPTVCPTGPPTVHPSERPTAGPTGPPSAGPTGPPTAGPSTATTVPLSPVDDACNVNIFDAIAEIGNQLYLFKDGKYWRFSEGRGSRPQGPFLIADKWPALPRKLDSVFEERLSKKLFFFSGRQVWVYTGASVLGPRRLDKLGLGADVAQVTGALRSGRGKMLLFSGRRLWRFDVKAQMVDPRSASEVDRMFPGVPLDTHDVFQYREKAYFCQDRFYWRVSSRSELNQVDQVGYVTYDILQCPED

Compound | IC50 [1] [nM] | IC50 [2] [nM]
NC(=O)[C@H](Cc1ccccc1)NC(=O)[C@H](CS)NC(=O)c1ccc2c(c1)OCO2 | 215 | 19
NC(=O)[C@H](Cc1cccnc1)NC(=O)[C@H](CC(=O)O)NC(=O)c1ccc2[nH]nnc2c1 | 453 | –
NC(=O)[C@H](Cc1ccccc1)NC(=O)[C@H](CS)NC(=O)c1ccoc1 | 171 | 84
NC(=O)[C@H](Cc1ccccc1)NC(=O)[C@H](CS)NC(=O)COc1ccccc1 | 598 | 34
NC(=O)[C@H](Cc1ccccc1)NC(=O)[C@H](CS)NC(=O)c1ccc(-c2ccccc2)cc1 | 425 | 21
NC(=O)[C@H](Cc1ccccc1)NC(=O)[C@H](CS)NC(=O)c1ccsc1 | 130 | 82
NC(=O)[C@H](Cc1ccccc1)NC(=O)[C@H](CS)NC(=O)c1ccc(-n2cccc2)nc1 | 250 | 15
CN(C)c1ccc(C(=O)N[C@@H](CS)C(=O)N[C@@H](Cc2ccccc2)C(N)=O)cc1 | 147 | 80
CC(=O)N[C@@H](CS)C(=O)N[C@@H](Cc1ccccc1)C(N)=O (Ac-Cys-Phe-NH2) | > 100000 | –
CC(=O)N[C@@H](CS)C(=O)N[C@@H](Cc1c[nH]c2ccccc12)C(N)=O (Ac-Cys-Trp-NH2) | 5000 | –
CC(=O)N[C@@H](CS)C(=O)N[C@H](C(N)=O)C(C)C (Ac-Cys-Val-NH2) | 7000 | –
CC(=O)N[C@@H](CS)C(=O)N[C@@H](Cc1cccs1)C(N)=O (Ac-Cys-[2Thi]-NH2) | 4000 | –
CC(=O)N[C@@H](CS)C(=O)N[C@@H](Cc1cccnc1)C(N)=O (Ac-Cys-[3Pal]-NH2) | 4000 | –
NC(=O)[C@H](Cc1ccccc1)NC(=O)[C@H](CS)NC(=O)CCc1ccccc1 (Hydrocinnamoyl-Cys-Phe-NH2) | 3500 | 38

The next compounds have a lower IC50 [1] than those just listed; values first:

IC50 [1] [nM] | IC50 [2] [nM] | Compound
93 | 41 | NC(=O)[C@H](Cc1ccccc1)NC(=O)[C@H](CS)NC(=O)c1ccncc1
12 | 42 | NC(=O)[C@H](Cc1cccnc1)NC(=O)[C@H](CS)NC(=O)c1ccc2[nH]nnc2c1
26 | 71 | NC(=O)[C@H](Cc1ccccc1)NC(=O)[C@H](CS)NC(=O)c1cn[nH]c1
105 | 49 | NC(=O)[C@H](Cc1ccccc1)NC(=O)[C@H](CS)NC(=O)c1cccs1
83 | 41 | NC(=O)[C@H](Cc1ccccc1)NC(=O)[C@H](CS)NC(=O)c1ccc(=O)[nH]c1
8 | 24 | NC(=O)[C@H](Cc1ccccc1)NC(=O)[C@H](CS)NC(=O)c1ccc2[nH]nnc2c1
26 | 71 | NC(=O)[C@H](Cc1cccnc1)NC(=O)[C@H](CS)NC(=O)c1cn[nH]c1
34 | 102 | NC(=O)[C@H](Cc1cccs1)NC(=O)[C@H](CS)NC(=O)c1ccc2nn[nH]c2c1
40 | > 1000 | NC(=O)[C@H](Cc1ccccc1)NC(=O)[C@H](CS)NC(=O)C(F)(F)F (Tfa-Cys-Phe-NH2)
63 | > 1000 | COC(=O)[C@H](Cc1ccccc1)NC(=O)[C@H](CS)NC(=O)C(F)(F)F (Tfa-Cys-Phe-OMe)
40 | 11 | NC(=O)[C@H](Cc1ccccc1)NC(=O)[C@H](CS)NC(=O)Nc1ccccc1 ({NHPh-CO}-Cys-Phe-NH2)
